We go through one compound from patent publication US20260159486A1, “BENZO[H]QUINAZOLINE-4-AMINE DERIVATIVES FOR THE TREATMENT OF CANCER” (Redona Therapeutics, Inc., priority 2021, published 2026).

For the assay, the system named is SW480 human colorectal cancer cells. The experiment in a line: SW480 colorectal cancer mouse xenograft model. In kind it is in vivo, NOD/SCID mice. The protocol: NOD/SCID mice of circa 23 g of weight were inoculated with 1×10^7 SW480 human colorectal cancer cells in 50% Matrigel™ subcutaneously in a flank. A pair match was performed when tumors reached an average volume of 100-150 mm^3 to distribute animals into treatment group and vehicle control (n=8/group). Tumor volumes (expressed in mm^3) were measured twice weekly using a caliper on days 1, 4, 8, 11, 15, 18, 22 and 23 of the treatment period. (A) The average TVol (±standard error of mean (SEM)) of each treatment group are shown. […] (B) Changes in BW in percentage (expressed in g, ±SEM) on days 1, 4, 8, 11, 15, 18, 22 and 23 of the treatment period. (C) Changes in vehicle- and Example 13-treated TVol expressed in mm^3. TVol ratio of Example 13-treated vs vehicle control (T/C) is indicated.
The efficacy of Example 13 was assessed in a mouse xenograft model. To this end, the SW480 colorectal cancer xenograft model was used, in which the tumor cells were injected subcutaneously into the flanks of immune-deficient NOD/SCID mice (lack functional/mature T and B cells, functional immature macrophages and residual NK cell function). […]
Tumor volumes (expressed in mm^3) were measured in two dimensions using a caliper on days 1, 4, 8, 11, 15, 18, 22 and 23 of the treatment period. […]

For `COCCN(C)c1c(O[C@H]2CC[C@H](N)CC2)ccc2c1CC(C)(C)c1c(N)ncnc1-2` [Example 13, 8-(trans-4-aminocyclohexoxy)-N7-(2-methoxyethyl)-N7,5,5-trimethyl-6H-benzo[h]quinazoline-4,7-diamine], under “oral 45 mg/kg BID*BIW, treatment period”, the “tumor volumes during the treatment period compared with vehicle-treated” value was “consistently smaller”. Under “study endpoint day 23, oral BID*BIW, 45 mg/kg days 1-10, 50 mg/kg days 11-22, p=0.06”, the “tumor volumes as % of the volume of the vehicle-treated group (T/C)” value was determined as 61%.
